{"source": "paper PMC5220300", "about": "“Variant Ionotropic Receptors in the Malaria Vector Mosquito Anopheles gambiae Tuned to Amines and Carboxylic Acids” (Scientific Reports, 2017)", "assay_type_in_all_cases": "cell-based", "key": {"[1]": {"molecular_target": "T1, AgIR41c (Anopheles coluzzii, UniProt A0A6E8W7H2)", "T1 construct": "with AgIr25a and AgIr76b (co-receptors)", "T1 sequence (A0A6E8W7H2 1-669, one chain of several)": "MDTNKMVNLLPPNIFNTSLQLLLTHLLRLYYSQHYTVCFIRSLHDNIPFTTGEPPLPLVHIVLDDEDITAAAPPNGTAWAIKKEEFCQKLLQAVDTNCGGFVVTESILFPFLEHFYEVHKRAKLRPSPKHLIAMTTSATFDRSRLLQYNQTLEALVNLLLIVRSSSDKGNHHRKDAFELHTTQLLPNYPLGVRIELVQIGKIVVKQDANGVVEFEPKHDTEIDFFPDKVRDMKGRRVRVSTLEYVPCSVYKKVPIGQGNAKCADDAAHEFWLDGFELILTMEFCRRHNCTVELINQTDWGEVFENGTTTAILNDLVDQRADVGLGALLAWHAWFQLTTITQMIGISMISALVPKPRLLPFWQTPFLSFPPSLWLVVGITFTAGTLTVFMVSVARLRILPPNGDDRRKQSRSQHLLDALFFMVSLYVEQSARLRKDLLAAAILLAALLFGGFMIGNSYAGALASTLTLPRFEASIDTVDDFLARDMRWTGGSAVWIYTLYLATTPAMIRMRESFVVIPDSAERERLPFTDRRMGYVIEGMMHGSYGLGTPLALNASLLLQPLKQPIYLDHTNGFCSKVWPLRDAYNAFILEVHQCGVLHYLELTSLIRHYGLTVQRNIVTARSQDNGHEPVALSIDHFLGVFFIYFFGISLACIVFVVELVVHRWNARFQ", "test": "two-electrode voltage clamp, Xenopus oocytes, concentration-response"}, "[2]": {"molecular_target": "T2, AgIR41a (Anopheles coluzzii, UniProt A0A6E8V5R5)", "T2 construct": "with AgIr25a and AgIr76b (co-receptors)", "T2 sequence (A0A6E8V5R5 1-637)": "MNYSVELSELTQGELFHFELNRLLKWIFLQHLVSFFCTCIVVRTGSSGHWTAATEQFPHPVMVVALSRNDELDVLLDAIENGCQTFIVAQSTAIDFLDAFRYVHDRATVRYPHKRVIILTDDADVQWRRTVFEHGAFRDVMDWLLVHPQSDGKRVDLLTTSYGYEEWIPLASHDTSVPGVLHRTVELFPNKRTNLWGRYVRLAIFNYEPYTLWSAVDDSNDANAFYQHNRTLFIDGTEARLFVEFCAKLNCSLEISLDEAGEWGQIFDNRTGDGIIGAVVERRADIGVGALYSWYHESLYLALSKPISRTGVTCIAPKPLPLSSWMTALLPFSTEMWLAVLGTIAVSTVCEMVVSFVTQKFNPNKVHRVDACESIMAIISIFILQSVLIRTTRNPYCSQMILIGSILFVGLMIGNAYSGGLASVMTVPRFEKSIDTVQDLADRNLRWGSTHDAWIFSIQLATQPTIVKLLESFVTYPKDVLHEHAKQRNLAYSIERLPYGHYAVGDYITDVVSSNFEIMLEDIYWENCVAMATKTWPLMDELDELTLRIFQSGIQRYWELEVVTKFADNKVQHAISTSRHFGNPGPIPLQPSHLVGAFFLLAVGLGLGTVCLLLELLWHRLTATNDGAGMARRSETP", "T2 sequence (A0A1S4H3H9 28-946 partner)": "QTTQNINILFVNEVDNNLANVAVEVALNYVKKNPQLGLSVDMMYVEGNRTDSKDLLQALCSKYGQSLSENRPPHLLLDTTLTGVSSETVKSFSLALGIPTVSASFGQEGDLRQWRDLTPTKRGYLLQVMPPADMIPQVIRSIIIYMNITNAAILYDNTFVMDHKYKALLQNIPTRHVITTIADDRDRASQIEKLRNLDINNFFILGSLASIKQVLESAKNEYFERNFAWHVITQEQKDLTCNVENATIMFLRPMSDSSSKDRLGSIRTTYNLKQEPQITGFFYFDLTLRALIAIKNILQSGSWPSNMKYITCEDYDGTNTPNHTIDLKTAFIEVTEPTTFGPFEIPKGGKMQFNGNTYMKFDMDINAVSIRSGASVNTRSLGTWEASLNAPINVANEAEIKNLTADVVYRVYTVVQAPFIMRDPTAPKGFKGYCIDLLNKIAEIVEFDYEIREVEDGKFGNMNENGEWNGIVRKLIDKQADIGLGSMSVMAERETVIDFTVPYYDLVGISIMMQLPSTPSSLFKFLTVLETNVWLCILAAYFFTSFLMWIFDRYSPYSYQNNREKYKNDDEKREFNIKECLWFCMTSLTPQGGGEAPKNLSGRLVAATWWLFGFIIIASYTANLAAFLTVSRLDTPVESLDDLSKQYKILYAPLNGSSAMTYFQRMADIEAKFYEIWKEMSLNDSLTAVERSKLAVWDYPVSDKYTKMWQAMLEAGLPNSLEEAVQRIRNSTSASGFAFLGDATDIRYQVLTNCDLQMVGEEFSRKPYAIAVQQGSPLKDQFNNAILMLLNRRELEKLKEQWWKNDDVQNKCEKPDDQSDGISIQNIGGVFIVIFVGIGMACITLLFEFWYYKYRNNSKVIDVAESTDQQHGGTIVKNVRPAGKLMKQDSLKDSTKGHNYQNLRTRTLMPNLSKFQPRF", "T2 sequence (A0A6E8W6Y5 1-657 partner)": "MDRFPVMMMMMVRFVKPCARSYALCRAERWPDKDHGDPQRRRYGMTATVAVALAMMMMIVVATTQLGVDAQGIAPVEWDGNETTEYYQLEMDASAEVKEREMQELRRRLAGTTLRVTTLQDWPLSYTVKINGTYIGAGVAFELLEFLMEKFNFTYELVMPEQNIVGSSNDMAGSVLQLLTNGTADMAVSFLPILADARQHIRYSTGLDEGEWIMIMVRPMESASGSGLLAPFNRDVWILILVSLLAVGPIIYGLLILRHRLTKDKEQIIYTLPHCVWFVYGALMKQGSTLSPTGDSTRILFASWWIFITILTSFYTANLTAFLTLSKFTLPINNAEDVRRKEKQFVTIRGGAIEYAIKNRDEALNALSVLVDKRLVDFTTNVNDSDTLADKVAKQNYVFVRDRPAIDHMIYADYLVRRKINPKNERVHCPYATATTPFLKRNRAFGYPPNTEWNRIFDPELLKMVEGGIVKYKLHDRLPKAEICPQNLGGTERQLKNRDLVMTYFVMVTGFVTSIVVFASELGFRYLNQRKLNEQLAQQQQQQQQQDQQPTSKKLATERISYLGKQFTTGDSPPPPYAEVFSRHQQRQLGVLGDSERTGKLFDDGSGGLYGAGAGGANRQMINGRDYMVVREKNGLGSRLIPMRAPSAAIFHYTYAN", "test": "two-electrode voltage clamp, Xenopus oocytes, concentration-response"}, "[3]": {"molecular_target": "T3, AgIR75k (Anopheles coluzzii, UniProt A0A6E8VT06)", "T3 construct": "with AgIr8a (co-receptor)", "T3 sequence (A0A6E8VT06 26-675)": "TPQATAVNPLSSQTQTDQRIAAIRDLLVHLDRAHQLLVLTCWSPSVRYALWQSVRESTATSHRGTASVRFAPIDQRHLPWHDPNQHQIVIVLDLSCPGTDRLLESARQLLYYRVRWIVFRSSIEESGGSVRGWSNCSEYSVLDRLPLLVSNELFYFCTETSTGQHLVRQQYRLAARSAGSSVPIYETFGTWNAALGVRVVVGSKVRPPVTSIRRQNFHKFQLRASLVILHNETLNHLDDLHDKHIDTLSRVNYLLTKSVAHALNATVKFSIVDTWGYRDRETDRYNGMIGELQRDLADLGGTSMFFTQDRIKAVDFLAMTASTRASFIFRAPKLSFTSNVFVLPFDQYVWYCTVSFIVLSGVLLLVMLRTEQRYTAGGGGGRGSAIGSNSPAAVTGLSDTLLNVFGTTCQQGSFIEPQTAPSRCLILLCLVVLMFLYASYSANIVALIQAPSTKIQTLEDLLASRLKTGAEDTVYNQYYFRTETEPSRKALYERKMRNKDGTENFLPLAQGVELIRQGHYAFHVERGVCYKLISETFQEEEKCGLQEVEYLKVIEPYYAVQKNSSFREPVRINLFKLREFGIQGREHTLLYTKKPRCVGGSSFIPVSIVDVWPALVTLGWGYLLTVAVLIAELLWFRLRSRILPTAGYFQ", "T3 sequence (A0A6E8W0A6 1-828 partner)": "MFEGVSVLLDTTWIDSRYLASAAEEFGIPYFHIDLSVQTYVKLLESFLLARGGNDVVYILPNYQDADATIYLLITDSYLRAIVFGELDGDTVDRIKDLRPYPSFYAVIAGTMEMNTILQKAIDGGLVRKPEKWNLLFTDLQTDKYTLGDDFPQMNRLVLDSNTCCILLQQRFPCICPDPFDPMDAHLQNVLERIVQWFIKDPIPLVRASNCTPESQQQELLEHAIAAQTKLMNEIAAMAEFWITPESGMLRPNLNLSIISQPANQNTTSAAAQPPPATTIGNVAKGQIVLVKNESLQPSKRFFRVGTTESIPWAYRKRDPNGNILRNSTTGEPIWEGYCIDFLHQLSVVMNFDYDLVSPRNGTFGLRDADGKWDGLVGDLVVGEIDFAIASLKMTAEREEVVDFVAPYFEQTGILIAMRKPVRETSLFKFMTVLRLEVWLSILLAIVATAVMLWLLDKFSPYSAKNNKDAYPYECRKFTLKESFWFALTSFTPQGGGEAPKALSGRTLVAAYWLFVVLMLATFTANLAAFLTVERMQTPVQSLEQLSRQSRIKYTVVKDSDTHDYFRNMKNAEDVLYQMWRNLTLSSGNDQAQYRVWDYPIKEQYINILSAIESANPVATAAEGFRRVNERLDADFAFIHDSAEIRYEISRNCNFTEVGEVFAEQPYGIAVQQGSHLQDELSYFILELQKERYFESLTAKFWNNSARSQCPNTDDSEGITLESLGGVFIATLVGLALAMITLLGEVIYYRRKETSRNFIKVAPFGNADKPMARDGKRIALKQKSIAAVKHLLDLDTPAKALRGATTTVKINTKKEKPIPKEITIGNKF", "test": "two-electrode voltage clamp, Xenopus oocytes, […] single concentration"}, "[4]": {"molecular_target": "T3, AgIR75k", "test": "two-electrode voltage clamp, Xenopus oocytes, concentration-response"}}, "data": [{"molecule": "C1CCNC1", "note": "[pyrrolidine]", "values": [{"measurement": "EC50", "setting": "[1]", "result": 3.4, "unit": "µM"}, {"measurement": "EC50", "setting": "[2]", "result": 110, "unit": "µM"}]}, {"molecule": "CCCCCCCC(=O)O", "note": "[octanoic acid]", "values": [{"measurement": "two-electrode voltage clamp, Xenopus oocytes, 10^-4 M single concentration", "setting": "[3]", "result": "octanoic and nonanoic acids elicited the greatest inward currents"}]}, {"molecule": "CCCCCCCCC(=O)O", "note": "[nonanoic acid]", "values": [{"measurement": "EC50", "setting": "[4]", "result": 35, "unit": "µM"}]}]}
